Laboratory results from patent publication US20240228488A1 (TAKEDA PHARMACEUTICAL COMPANY LIMITED, priority 2021, published 2024).

Target: human activated kallikrein enzyme (Homo sapiens, UniProt P03952)
Experiment: Plasma kallikrein inhibition, fluorogenic PFR-AMC substrate, 500 pM activated kallikrein format
Format: biochemical
Details: 500 pM activated kallikrein, 300 uM PFR-AMC, 30 min preincubation, 10 min reaction; read-out: Primary Dose Response Assay: Average EC50
Procedure, shortened: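 Enzyme (500 pM) was preincubated with inhibitor for 30 min at room temperature in 20 mM Tris pH 7.5, 1 mM EDTA, 150 mM NaCl, 0.1% PEG-400 and 0.1% Triton X-100. The reaction was started with 300 uM PFR-AMC, run 10 min, and fluorescence read at 460 nm (380 nm excitation). EC50 derived.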

human activated kallikrein enzyme, sequence (P03952 391-638 limits assumed): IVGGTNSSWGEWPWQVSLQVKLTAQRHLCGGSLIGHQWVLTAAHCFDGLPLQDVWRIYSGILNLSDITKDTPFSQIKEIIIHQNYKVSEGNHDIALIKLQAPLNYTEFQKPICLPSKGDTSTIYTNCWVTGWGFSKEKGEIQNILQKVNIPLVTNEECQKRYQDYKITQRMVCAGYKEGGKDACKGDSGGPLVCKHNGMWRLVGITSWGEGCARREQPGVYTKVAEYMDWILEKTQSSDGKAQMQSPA
human activated kallikrein enzyme, sequence (P03952 20-390 partner limits assumed): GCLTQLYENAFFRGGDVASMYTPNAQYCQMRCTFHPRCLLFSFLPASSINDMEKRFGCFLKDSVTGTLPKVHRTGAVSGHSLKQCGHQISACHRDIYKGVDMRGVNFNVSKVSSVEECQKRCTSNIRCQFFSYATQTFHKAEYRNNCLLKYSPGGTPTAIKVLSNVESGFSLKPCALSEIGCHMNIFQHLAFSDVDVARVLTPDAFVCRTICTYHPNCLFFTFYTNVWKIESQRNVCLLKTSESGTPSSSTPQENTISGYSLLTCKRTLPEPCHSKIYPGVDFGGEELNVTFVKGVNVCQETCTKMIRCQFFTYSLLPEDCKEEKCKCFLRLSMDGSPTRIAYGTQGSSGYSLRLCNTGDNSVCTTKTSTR

EC50 [nM]	Compound
< 1	Cc1ccnc([C@H]2C[C@@H]2C(=O)Nc2cc(N[C@H](C)c3cn4cc(C(C)F)cc(N5CC(=O)N(C)C5=O)c4n3)ncn2)n1 (stereo partly drawn) [Example 530, (1S,2S)-N-(6-(((1R)-1-(6-(1-fluoroethyl)-8-(3-methyl-2,4-dioxoimidazolidin-1-yl)imidazo[1,2-a]pyridin-2-yl)ethyl)amino)pyrimidin-4-yl)-2-(4-methylpyrimidin-2-yl)cyclopropane-1-carboxamide]
1000 to 6000	O=C(Nc1cc(N2CC[C@@H](O)[C@@H]2c2cn3cc(C4CC4)ccc3n2)ncn1)[C@H]1C[C@@H]1c1cccc(Cl)c1 [Example 485, (1S,2S)-2-(3-chlorophenyl)-N-(6-((2S,3R)-2-(6-cyclopropylimidazo[1,2-a]pyridin-2-yl)-3-hydroxypyrrolidin-1-yl)pyrimidin-4-yl)cyclopropane-1-carboxamide]
< 1	Cc1cc(NC(=O)[C@H]2C[C@@H]2c2nccc(C)n2)nc(N[C@H](C)c2cn3cc(C4CC4)cc(N4CC(=O)N(C)C4=O)c3n2)n1 [Example 440, (1S,2S)-N-(2-(((R)-1-(6-cyclopropyl-8-(3-methyl-2,4-dioxoimidazolidin-1-yl)imidazo[1,2-a]pyridin-2-yl)ethyl)amino)-6-methylpyrimidin-4-yl)-2-(4-methylpyrimidin-2-yl)cyclopropane-1-carboxamide]
< 1	Cc1ccnc([C@H]2C[C@@H]2C(=O)Nc2cc(N[C@H](C)c3cn4cc(C5CC5)cc(N5CC6CC6C5=O)c4n3)nc(C)n2)n1 (stereo partly drawn) [Example 433, (1S,2S)-N-(6-(((1R)-1-(6-cyclopropyl-8-(2-oxo-3-azabicyclo[3.1.0]hexan-3-yl)imidazo[1,2-a]pyridin-2-yl)ethyl)amino)-2-methylpyrimidin-4-yl)-2-(4-methylpyrimidin-2-yl)cyclopropane-1-carboxamide]
10 to 100	O=C(Nc1cc2c(cn1)ncn2Cc1cn2cc(C3CC3)ccc2n1)[C@H]1C[C@@H]1c1cccc(Cl)c1 (racemic) [Example 594, rac-(1S*,2S*)-2-(3-chlorophenyl)-N-(1-((6-cyclopropylimidazo[1,2-a]pyridin-2-yl)methyl)-1H-imidazo[4,5-c]pyridin-6-yl)cyclopropane-1-carboxamide]
> 6000	O=C(Nc1cc(N2CC[C@H](O)[C@H]2c2cn3cc(C4CC4)ccc3n2)ncn1)[C@H]1C[C@@H]1c1cccc(Cl)c1 [Example 484, (1S,2S)-2-(3-chlorophenyl)-N-(6-((2R,3S)-2-(6-cyclopropylimidazo[1,2-a]pyridin-2-yl)-3-hydroxypyrrolidin-1-yl)pyrimidin-4-yl)cyclopropane-1-carboxamide]
< 1	Cc1ccnc([C@H]2C[C@@H]2C(=O)Nc2cccc(OCc3cn4cc(C5CC5)cc(N5CC(=O)N(C)C5=O)c4n3)c2)n1 [Example I-643, (1S,2S)—N-(3-((6-cyclopropyl-8-(3-methyl-2,4-dioxoimidazolidin-1-yl)imidazo[1,2-a]pyridin-2-yl)methoxy)phenyl)-2-(4-methylpyrimidin-2-yl)cyclopropane-1-carboxamide]
1 to 10	CN1CC(=O)N(c2cc(C3CC3)cn3cc(CNc4cc(NC(=O)[C@H]5C[C@@H]5c5cccc(Cl)c5)ncn4)nc23)C1=O [Example I-171, (1S,2S)-2-(3-chlorophenyl)-N-(6-(((6-cyclopropyl-8-(3-methyl-2,5-dioxoimidazolidin-1-yl)imidazo[1,2-a]pyridin-2-yl)methyl)amino)pyrimidin-4-yl)cyclopropane-1-carboxamide]
10 to 100	Cc1ccnc([C@H]2C[C@@H]2C(=O)Nc2cc(N[C@@H](C)c3cn4cc(C5CC5)cc(N5CC(=O)N(C)C5=O)c4n3)ncn2)n1 (single isomer, unassigned) [Example 452]
1 to 10	NCc1cc(C2CC2)cn2cc(COc3ccnc(NC(=O)[C@H]4C[C@@H]4c4cccc(Cl)c4)c3)nc12 (racemic) [Example 572, rac-(1S*,2S*)—N-(4-((8-(aminomethyl)-6-cyclopropylimidazo[1,2-a]pyridin-2-yl)methoxy)pyridin-2-yl)-2(3-chlorophenyl)cyclopropane-1-carboxamide]
1 to 10	CCOC(=O)c1nc(NCc2cn3cc(C4CC4)ccc3n2)cc(NC(=O)[C@H]2C[C@@H]2c2cccc(Cl)c2)n1 (racemic) [Example 111, rac-ethyl 4-((1S*,2S*)-2-(3-chlorophenyl)cyclopropane-1-carboxamido)-6-(((6-cyclopropylimidazo[1,2-a]pyridin-2-yl)methyl)amino)pyrimidine-2-carboxylate]
< 1	Cc1ccnc([C@H]2C[C@@H]2C(=O)Nc2nncc(OCc3cn4cc(C5CC5)cc(N5CC(=O)N(C)C5=O)c4n3)n2)n1 [Example 671, (1S,2S)—N-(5-((6-cyclopropyl-8-(3-methyl-2,4-dioxoimidazolidin-1-yl)imidazo[1,2-a]pyridin-2-yl)methoxy)-1,2,4-triazin-3-yl)-2-(4-methylpyrimidin-2-yl)cyclopropane-1-carboxamide]
1 to 10	CNC(=O)c1cc(C2CC2)cn2cc(CNc3cc(NC(=O)[C@H]4C[C@@H]4c4cccc(Cl)c4)ncn3)nc12 [Example 303, 2-(((6-((1S,2S)-2-(3-chlorophenyl)cyclopropane-1-carboxamido)pyrimidin-4-yl)amino)methyl)-6-cyclopropyl-N-methylimidazo[1,2-a]pyridine-8-carboxamide]
100 to 1000	O=C(Nc1cc(OCc2cn3cc(C4CC4)ccc3n2)ncn1)[C@H]1C[C@@H]1c1cccc(Cl)c1 (racemic) [Example 104, rac-(1S*,2S*)-2-(3-chlorophenyl)-N-(6-((6-cyclopropylimidazo[1,2-a]pyridin-2-yl)methoxy)pyrimidin-4-yl)cyclopropane-1-carboxamide]
1 to 10	O=C(O)c1cc(C2CC2)cn2cc(CNc3cc(NC(=O)[C@H]4C[C@@H]4c4cccc(Cl)c4)ncn3)nc12 [Example 298, 2-(((6-((1S,2S)-2-(3-chlorophenyl)cyclopropane-1-carboxamido)pyrimidin-4-yl)amino)methyl)-6-cyclopropylimidazo[1,2-a]pyridine-8-carboxylic acid]
10 to 100	O=C(Nc1cc(NCc2cn3cc(C4CC4)ccc3n2)ccn1)[C@H]1C[C@@H]1c1cc(Cl)cnn1 (racemic) [Example I-211, rac-(1S*,2S*)-2-(5-chloropyridazin-3-yl)-N-(4-(((6-cyclopropylimidazo[1,2-a]pyridin-2-yl)methyl)amino)pyridin-2-yl)cyclopropane-1-carboxamide]
> 6000	CN(C(=O)[C@H]1C[C@@H]1c1cccc(Cl)c1)c1cc(NCc2cn3cc(C4CC4)ccc3n2)ncn1 [Example 350, (1S,2S)-2-(3-chlorophenyl)-N-(6-(((6-cyclopropylimidazo[1,2-a]pyridin-2-yl)methyl)amino)pyrimidin-4-yl)-N-methylcyclopropane-1-carboxamide]
10 to 100	O=C(Nc1cc(NCc2cn3cc(C4CC4)ccc3n2)ccn1)[C@H]1C[C@@H]1c1cncc(Cl)c1 (racemic) [Example I-221, rac-(1S*,2S*)-2-(5-chloropyridin-3-yl)-N-(4-(((6-cyclopropylimidazo[1,2-a]pyridin-2-yl)methyl)amino)pyridin-2-yl)cyclopropane-1-carboxamide]
